Laboratory results as given in ChEMBL document CHEMBL1201862, “PubChem BioAssay data set” (2004).
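Compound exposure: 48 hours, 5 concentrations, 96-well plates. At the GI50, growth is halved.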 The source made the active and inactive calls. Rule as the data show it: active = GI50 up to about 1.1 µM and inactive = higher.

What was measured:
Assay in all cases: NCI-60 cell line screen, 48 h
[1] = system: SNB-78
[2] = system: DMS-273
[3] = system: DMS-114
[4] = system: LXFL 529
[5] = system: BT-549
[6] = system: T47D
[7] = system: MDA-MB-231
[8] = system: XF498

SMILES | GI50 [1] | GI50 [2] | GI50 [3] | GI50 [4] | GI50 [5] | GI50 [6] | GI50 [7] | GI50 [8]
CC1CC2C3CCC4=CC(=O)C=CC4(C)C3(F)C(O)CC2(C)C1(O)C(=O)CO.Cc1cc(NS(=O)(=O)c2ccc(/N=N\c3cc(/N=N/c4ccc(S(=O)(=O)Nc5cc(C)nc(C)n5)cc4)c(OC(=O)C(Cl)Cl)c4cccc(NC(=O)C(Cl)Cl)c34)cc2)nc(C)n1 | 33.1 µM (inactive) | 21.5 µM (inactive) | 27.5 µM (inactive) | 10 µM (inactive) |  |  |  | 
O=C(c1ccccc1)c1ccc(N2C(=O)/C(=C/c3cccc(Oc4ccccc4)c3)N=C2c2ccccc2)c(N2C(=O)/C(=C/c3cccc(Oc4ccccc4)c3)N=C2c2ccccc2)c1 |  |  |  |  | 24.7 µM (inactive) | 30.7 µM (inactive) | 45.8 µM (inactive) | 
CC(=O)NNc1nc(C)c(C(/C=C/c2ccc([N+](=O)[O-])cc2)=N/N)s1 |  |  |  |  | > 100 µM (inactive) | > 100 µM (inactive) | 25.4 µM (inactive) | 
O=C(CCCl)NN=C1NCCN1 |  |  |  |  | > 100 µM (inactive) | > 100 µM (inactive) | > 100 µM (inactive) | 
CCC(CS(=O)(=O)O)[N+](=O)[O-] (stereo not drawn) |  |  |  |  | > 100 µM (inactive) | > 100 µM (inactive) | > 100 µM (inactive) | 
C[C@]12CC[C@H](O)CC1=CC[C@@H]1[C@@H]2CC[C@]2(C)C(=N/O)/C(=C/c3ccc([N+](=O)[O-])cc3)C[C@@H]12 |  |  |  |  | 10.5 µM (inactive) | 2.48 µM (inactive) |  | 
CCC(CC)C(=O)OC[n+]1cccc(-c2c(COC(=O)NC(C)C)c(COC(=O)NC(C)C)c3n2CCC3)c1 |  |  |  |  | > 100 µM (inactive) | > 100 µM (inactive) | > 100 µM (inactive) | 
C[C@]12OC(=O)[C@]3(O)CC[C@H]4[C@@H](C[C@@H](O)[C@@]5(Cl)CC=CC(=O)[C@]45C)[C@]45OCC6C(=O)O[C@@H]1C[C@@]6(C)[C@H](C4=O)[C@@]32O5 (stereo partly drawn) |  |  |  |  | 0.586 µM (active) | 1.82 µM (inactive) | 3.02 µM (inactive) | 
Nc1ncnc2c1ncn2[C@H]1C=C[C@@H](NO)C1 |  |  |  |  | > 100 µM (inactive) | > 100 µM (inactive) | > 100 µM (inactive) | 
C[C@]12Cc3cn[nH]c3C(=O)C1CC[C@@H]1C2CC[C@@]2(C)C1CC[C@@H]2O (stereo partly drawn) | > 100 µM (inactive) | > 100 µM (inactive) | > 100 µM (inactive) | > 100 µM (inactive) |  |  |  | > 100 µM (inactive)
CN(C)c1ccc2nc3c(C(=O)O)cc(O)c(O)c3[o+]c2c1 |  |  |  |  | 20.9 µM (inactive) | 15.1 µM (inactive) | 33 µM (inactive) | 
CCC(C)C(=O)OCC(=O)c1ccc(-c2ccccc2)cc1 (stereo not drawn) |  |  |  |  | 45.4 µM (inactive) | 22.3 µM (inactive) | 78.9 µM (inactive) | 
CCc1nc(N)nc(N)c1-c1ccc(Cl)c(N=[N+]=[N-])c1 | 18.2 µM (inactive) |  |  | 6.24 µM (inactive) |  | 25.3 µM (inactive) | 14.8 µM (inactive) | 31 µM (inactive)
NCCCNCCCCN1CC1 |  |  |  |  | 5.4 µM (inactive) | 0.265 µM (active) | 1.4 µM (inactive) | 
CO[C@]1(c2ccc([N+](=O)[O-])cc2)Oc2ccccc2C(=O)[C@@]1(Nc1ccc(C=O)cc1)OC |  |  |  |  | > 10 µM (inactive) | > 10 µM (inactive) | > 10 µM (inactive) | 
COc1ccc(C2Oc3c(cccc3-c3c(-c4ccc(O)cc4)oc4cc(O)cc(O)c4c3=O)C(=O)C2O)cc1O (stereo not drawn) |  |  |  |  | > 100 µM (inactive) | > 100 µM (inactive) | > 100 µM (inactive) | 
COc1cc(C(=O)OC2CC(C)=CC[C@@]3(C)CC[C@](O)(C(C)C)C23)ccc1O (stereo partly drawn) |  |  |  |  |  | 22.3 µM (inactive) | 15 µM (inactive) | 
O=C1/C(=C/C=C/c2ccccc2)CCC1CNc1ccc(Br)cc1 (stereo not drawn) |  |  |  |  | > 100 µM (inactive) | 34.1 µM (inactive) | 23.1 µM (inactive) | 
O=C1C=C2C(=NC34CCCCC3C(c3ccccc3)C3=C(c5ccccc5CC3)N24)c2ccccc21 (stereo not drawn) |  |  |  |  | > 10 µM (inactive) | > 10 µM (inactive) | > 10 µM (inactive) | 
COc1cccc(N2N=C3c4ccccc4-n4c(nc5ccccc54)C3C2N)c1 (stereo not drawn) |  |  |  |  | > 100 µM (inactive) | > 100 µM (inactive) | 92.3 µM (inactive) | 
Sc1ncnc2c1ncn2C1CCCO1 (stereo not drawn) |  | 76.2 µM (inactive) | 65.8 µM (inactive) | > 100 µM (inactive) |  |  |  | 
CSc1c(C(=O)Nc2ccc(Cl)cc2)c(N)n(N)c(=O)c1C#N |  |  |  |  | > 100 µM (inactive) | 31.3 µM (inactive) | > 100 µM (inactive) | 
Nc1nc(O)c2nc(CNc3ccc(C(=O)NC(CCC(=O)O)C(=O)O)cc3)cnc2n1 (stereo not drawn) |  |  |  |  | > 100 µM (inactive) |  |  | 
CC1=C(C#N)C(=C(C#N)C#N)OC1(C)Cc1ccccc1 (stereo not drawn) |  |  |  |  | 35.1 µM (inactive) | 29.9 µM (inactive) | 47.9 µM (inactive) | 
CSc1nc(O)c(C#N)c(-c2ccc(Cl)cc2)n1 |  |  |  |  | > 100 µM (inactive) | 43.7 µM (inactive) | > 100 µM (inactive) | 
O=c1c2cc([N+](=O)[O-])ccc2[nH]n1Cc1ccccc1Cl |  |  |  |  |  |  | 70.5 µM (inactive) | 
N#Cc1cc2c(cc1C#N)SCCSCCCSCCS2 |  |  |  |  | 15 µM (inactive) | 32.4 µM (inactive) | 10 µM (inactive) | 
CC(C)C1(NC(=O)C2CC3c4cccc5[nH]cc(c45)CC3N(C)C2)OC2(O)C3CCCN3C(=O)C(Cc3ccccc3)N2C1=O (stereo not drawn) |  |  |  |  | 55 µM (inactive) | 11.9 µM (inactive) | 17.7 µM (inactive) | 
COc1ccc2c(c1)/C(=C\c1c(Cl)nc3sc(C)cn13)C(=O)N2 |  |  |  |  | 5.21 µM (inactive) | 3.99 µM (inactive) | 5.65 µM (inactive) | 
CCn1c(-c2ccccc2)nc2c1C(=O)c1ccccc1C2=O |  |  |  |  | 24.9 µM (inactive) | 2.22 µM (inactive) |  | 
